Measured values as given in US7662404B2, “Transdermal delivery system for dried particulate or lyophilized peptides and polypeptides” (TransPharma Medical Ltd., priority 2002, dated 2010).
Like-named read-outs stand apart in the source and are kept apart here.

Assay: Plasma hPTH (1-34) in pigs as a function of patch application time (Example 14)
Assay type: in vivo
Details: male, large white, pig; for Cmax: read-out: Cmax AVG ± SD; for F rel: topical or ocular, compared to SC, read-out: % BIO AVG ± SD
Protocol: A printed patch containing 90 μg of hPTH (1-34) was placed over the application area and covered with Tegaderm. The patch was removed 1 hour, 1.5 hours, 2 hours or 8 hours after application, and the skin site was gently wiped to remove residual peptide. As a control group, pigs were injected s.c. with 0.2 ml FORTEO® (hPTH (1-34) purchased from Ely Lilly, Indianapolis, Ind., USA; 250 μg/ml) diluted to 100 μg/ml in the dorsal neck area (final dose was 20 μg per animal). Formulation: hPTH (1-34) (10 mg/ml): Trehalose (110 mg/ml) in 50 mM acetic acid, pH=4.
To determine the amount of hPTH(1-34) delivered to the blood of the treated pigs, blood samples were withdrawn at the indicated time points and the amount of hPTH(1-34) was measured by an ELISA kit (Immutopics, San-Clemente, Calif.).

**Q.** With `CC[C@H](C)[C@H](NC(=O)[C@H](CCC(=O)O)NC(=O)[C@H](CO)NC(=O)[C@@H](NC(=O)[C@@H](N)CO)C(C)C)C(=O)N[C@@H](CCC(N)=O)C(=O)N[C@@H](CC(C)C)C(=O)N[C@@H](CCSC)C(=O)N[C@@H](Cc1cnc[nH]1)C(=O)N[C@@H](CC(N)=O)C(=O)N[C@@H](CC(C)C)C(=O)NCC(=O)N[C@@H](CCCCN)C(=O)N[C@@H](Cc1cnc[nH]1)C(=O)N[C@@H](CC(C)C)C(=O)N[C@@H](CC(N)=O)C(=O)N[C@@H](CO)C(=O)N[C@@H](CCSC)C(=O)N[C@@H](CCC(=O)O)C(=O)N[C@@H](CCCN=C(N)N)C(=O)N[C@H](C(=O)N[C@@H](CCC(=O)O)C(=O)N[C@@H](Cc1c[nH]c2ccccc12)C(=O)N[C@@H](CC(C)C)C(=O)N[C@@H](CCCN=C(N)N)C(=O)N[C@@H](CCCCN)C(=O)N[C@@H](CCCCN)C(=O)N[C@@H](CC(C)C)C(=O)N[C@@H](CCC(N)=O)C(=O)N[C@@H](CC(=O)O)C(=O)N[C@H](C(=O)N[C@@H](Cc1cnc[nH]1)C(=O)N[C@@H](CC(N)=O)C(=O)N[C@@H](Cc1ccccc1)C(=O)O)C(C)C)C(C)C` [hPTH (1-34)] as the compound, how does the Cmax (90 ug, TD 90 ug printed patch, removed after 1 h) read?
**A.** The Cmax was 0.0772 ± 0.0358 ng/mL.

**Q.** And the Cmax (90 ug, TD 90 ug printed patch, removed after 1.5 h)?
**A.** The Cmax was 0.179 ± 0.0658 ng/mL.

**Q.** What about the Cmax (90 ug, TD 90 ug printed patch, removed after 2 h) of the same compound?
**A.** Its Cmax is 0.137 ± 0.0431 ng/mL.

**Q.** What about the Cmax (90 ug, TD 90 ug printed patch, removed after 8 h) of the same compound?
**A.** Its Cmax is 0.128 ± 0.0524 ng/mL.

**Q.** What about the AUC (90 ug, TD 90 ug, 1 h) of the same compound?
**A.** The AUC was 0.232 ± 0.0418 ng·h/mL.

**Q.** What about the AUC (90 ug, TD 90 ug, 1.5 h) of the same compound?
**A.** The AUC was 0.296 ± 0.0716 ng·h/mL.

**Q.** And the AUC (90 ug, TD 90 ug, 2 h)?
**A.** Its AUC is 0.272 ± 0.0545 ng·h/mL.

**Q.** What about the AUC (90 ug, TD 90 ug, 8 h) of the same compound?
**A.** The AUC was 0.331 ng·h/mL.

**Q.** What about the AUC (sc, 20 ug, SC 20 ug) of the same compound?
**A.** The AUC was 0.237 ± 0.0273 ng·h/mL.

**Q.** And the Cmax (sc, 20 ug, SC 20 ug)?
**A.** The Cmax was 0.289 ± 0.0525 ng/mL.

**Q.** And the F rel (90 ug, TD 90 ug, 1 h)?
**A.** Its F rel is 22.4 ± 6.97%.

**Q.** And the F rel (90 ug, TD 90 ug, 1.5 h)?
**A.** Its F rel is 28.5 ± 9.36%.

**Q.** What about the F rel (90 ug, TD 90 ug, 2 h) of the same compound?
**A.** The F rel was 26.2 ± 8.42%.

**Q.** And the F rel (90 ug, TD 90 ug, 8 h)?
**A.** Its F rel is 31.6 ± 9.03%.
